Assay results from US20120204273A1, “COMPOSITIONS RELATING TO A PHOSPHOPROTEIN AND METHODS OF USE” (SANFORD-BURNHAM MEDICAL RESEARCH INSTITUTE, priority 2010, published 2012).

Test system: HA-CDP138
Experiment: Phosphorylation of HA-CDP138 in CHO-T cells (anti-HA IP, PAS antibody blot)
Assay type: cell-based, hamster
Settings: insulin 100 nM, 15 min
Excerpt: FIG. 1, panels A-D, show an uncharacterized C2 domain-containing protein encoded by 5730419I09Rik is a novel phosphoprotein identified in insulin-stimulated adipocytes using a SILAC phosphoproteomic approach. (A): Schematic procedure for SILAC quantitative proteomics used for identification and quantification of peptide from CDP138 (5730419I09Rik). Top right panel: quantification of CDP138 peptide from different groups of adipocytes. Lower right panel: Schematic diagram of CDP138 and the identified phosphorylation sites. (B): Confirmation of CDP138 phosphorylation induced by insulin. CHO-T cells expressing HA-CDP138, or differentiated 3T3-L1 adipocytes were treated with or without insulin (100 nM) for 15 min. A third sample was pretreated with wortmannin (100 nM, WM) for 20 min or LY294002 (50 μM, LY) for 1 hour before insulin stimulation. […] CDP138, pS473-Akt and Akt protein were also detected with total cell lysates. […] Whole cell extracts (25 μg total protein) from different tissues (lean mice, left panel) and epididymal fat pads from both ob/ob and lean mice (24 weeks old, Jackson Lab, Bar Harbor, Me.; middle panel) were analyzed by immunoblotting with antibodies against CDP138, IRS-1, Akt, Erk1/2, and β-actin. Right panel: quantification of CDP138 protein levels in fat tissues from lean and obese mice. […]

insulin
phosphorylation of HA-tagged CDP138 detected with PAS antibodies: stimulates phosphorylation
